In publication PMC11632414 (2024):

How the values were obtained:
[1] = tested on: 23TAG (DNA, G4) TAGGGTTAGGGTTAGGGTTAGGG; assay: UV-Vis titration, Benesi-Hildebrand; conditions: K+ (20 mM potassium phosphate); pH 7, 25 °C; 5 μM porphyrin titrated with DNA
[2] = tested on: CMA (DNA, G4) TAGGGAGGGTAGGGAGGGT; assay: UV-Vis titration, Benesi-Hildebrand; conditions: K+ (20 mM potassium phosphate); pH 7, 25 °C; 5 μM porphyrin titrated with DNA

Compound: C[n+]1ccc(-c2c3nc(c(-c4cc[n+](C)cc4)c4ccc([nH]4)c(-c4cc[n+](C)cc4)c4nc(c(-c5cc[n+](C)cc5)c5ccc2[nH]5)C=C4)C=C3)cc1
- Kb [1]: (1.5±0.4)×10^6 M^-1
- Kb [2]: (1.5±0.6)×10^6 M^-1
